The mass density is the mass of a sample divided by its volume.

For the data set the following is noted: 298.15 K; 101.33 kPa; Crystal.

Numbers after ± are expanded uncertainties.

For the molecule `O=C(O)c1cnccn1` [2-pyrazinecarboxylic acid], the mass density is reported as 1200 ± 200 kg/m3.

Regarding `NC(=O)c1cnccn1` [pyrazinecarboxamide], the mass density is listed as 1100 ± 200 kg/m3.

For the origin of these results see the NIST ThermoML archive (doi:10.1016/j.jct.2004.08.006).
